Laboratory results: US11254651B2, “Histone methyltransferase inhibitors” (GLOBAL BLOOD THERAPEUTICS, INC., priority 2016, dated 2022)

System: HGS tumor model
Assay: anti-tumor activity in HGS tumor model
Assay type: in vivo
Settings: animals treated with 20/kg of compound
Source text: […]

## C=CC(=O)N1CCN(CCCn2c(=O)c(-c3c(Cl)c(OC)cc(OC)c3Cl)cc3cnc(NC)nc32)CC1 [8-(3-(4-acryloylpiperazin-1-yl)propyl)-6-(2,6-dichloro-3,5-dimethoxyphenyl)-2-(methylamino)pyrido[2,3-d]pyrimidin-7(8H)-one]
  antitumor activity: significant antitumor activity and induced tumor regression
Day 42 after inoculation
  tumor size: 55 mm3
